Experiments:
[1] = Plasma protein binding in human; assay type: ADME, cell-free; details: read-out: PPB (converted)
[2] = Plasma protein binding in rat; assay type: ADME, cell-free; details: read-out: PPB (converted)
[3] = Oral bioavailability in rat; assay type: ADME, organism-based; details: in vivo
[4] = Volume of distribution at steady state in rat; assay type: ADME, organism-based; details: in vivo, read-out: Vdss
[5] = Clearance in iv dosed rat; assay type: ADME, organism-based; details: in vivo
Rattus norvegicus = assay: Total drug recovery in female Sprague-Dawley rat treated with [14C]-AMG 221 at 2 mg/kg, po measured over 48 hrs by liquid scintillation counting analysis; assay type: ADME, organism-based; set-up: dose 2 mg/kg, route oral; details: in vivo
[6] = Retention time of the compound in Sprague-Dawley rat urine treated with [14C]-AMG 221 at 2 mg/kg, po after 12 hrs by LC-MS/HPLC radiometric analysis; assay type: ADME, organism-based; set-up: dose 2 mg/kg, route oral; details: in vivo
[7] = Drug excretion in male Sprague-Dawley rat urine treated with [14C]-AMG 221 at 2 mg/kg, po measured over 24 hrs by LC-MS/HPLC radiometric analysis; assay type: ADME, organism-based; set-up: dose 2 mg/kg, route oral; details: in vivo
[8] = Drug excretion in male Sprague-Dawley rat feces treated with [14C]-AMG 221 at 2 mg/kg, po measured over 24 hrs by LC-MS/HPLC radiometric analysis; assay type: ADME, organism-based; set-up: dose 2 mg/kg, route oral; details: in vivo
[9] = Drug excretion in female Sprague-Dawley rat urine treated with [14C]-AMG 221 at 2 mg/kg, po measured over 24 hrs by LC-MS/HPLC radiometric analysis; assay type: ADME, organism-based; set-up: dose 2 mg/kg, route oral; details: in vivo
[10] = Drug excretion in female Sprague-Dawley rat feces treated with [14C]-AMG 221 at 2 mg/kg, po measured over 24 hrs by LC-MS/HPLC radiometric analysis; assay type: ADME, organism-based; set-up: dose 2 mg/kg, route oral; details: in vivo
[11] = Drug level in Sprague-Dawley rat urine treated with [14C]-(S)-2-((1R,2S,4R,5S)-5-hydroxybicyclo[2.2.1]heptan-2-ylamino)-5-isopropyl-5-methylthiazol-4(5H)-one at 5 mg/kg, po measured over 24 hrs by LC-MS/HPLC radiometric analysis; assay type: ADME, organism-based; set-up: dose 5 mg/kg, route oral; details: in vivo
Plasma [12] = assay: Retention time of the compound in Beagle dog plasma treated with [14C]-AMG 221 at 2 mg/kg, po measured at 0.5 hrs by LC-MS/HPLC radiometric analysis; assay type: ADME, organism-based, Canis lupus familiaris; set-up: dose 2 mg/kg, route oral; details: in vivo
[13] = Retention time of the compound in Sprague-Dawley rat urine treated with [14C]-AMG 221 at 2 mg/kg, po measured over 24 hrs by LC-MS/HPLC radiometric analysis; assay type: ADME, organism-based; set-up: dose 2 mg/kg, route oral; details: in vivo
Liver microsome [14] = assay: Retention time of the compound in rat liver microsomes treated with [14C]-(S)-2-((1R,2S,4R,5S)-5-hydroxybicyclo[2.2.1]heptan-2-ylamino)-5-isopropyl-5-methylthiazol-4(5H)-one at 40 uM preincubated for 5 mins followed by NADPH addition measured after 60 mins by LC-MS/MS-radiometric analysis; assay type: ADME; details: 1 h
Liver microsome [15] = assay: Retention time of the compound in rat liver microsomes treated with (S)-2-((1S,2S,4R)-bicyclo[2.2.1]heptan-2-ylamino)-5-(2-hydroxypropan-2-yl)-5-methylthiazol-4(5H)-one at 20 uM preincubated for 5 mins followed by NADPH addition measured after 60 mins by LC-MS/MS analysis; assay type: ADME; details: 1 h
[16] = Retention time of the compound in urine of bile duct cannulated Sprague-Dawley rat treated with [14C]-(S)-2-((1R,2S,4R,5S)-5-hydroxybicyclo[2.2.1]heptan-2-ylamino)-5-isopropyl-5-methylthiazol-4(5H)-one at 5 mg/kg, po measured over 48 hrs by LC-MS/HPLC radiometric analysis; assay type: ADME, organism-based; set-up: dose 5 mg/kg, route oral; details: in vivo
[17] = Retention time of the compound in Beagle dog urine treated with [14C]-AMG 221 at 2 mg/kg, po measured over 24 hrs by LC-MS/HPLC radiometric analysis; assay type: ADME, organism-based, Canis lupus familiaris; set-up: dose 2 mg/kg, route oral; details: in vivo
Plasma [18] = assay: Retention time of the compound in Sprague-Dawley rat plasma treated with [14C]-AMG 221 at 2 mg/kg, po measured at 0.5 hrs by LC-MS/HPLC radiometric analysis; assay type: ADME, organism-based; set-up: dose 2 mg/kg, route oral; details: in vivo
Liver microsome [19] = assay: Retention time of the compound in rat liver microsomes treated with (S)-2-((1S,2S,4R)-bicyclo[2.2.1]heptan-2-ylamino)-5-((S)-1-hydroxypropan-2-yl)-5-methylthiazol-4(5H)-one at 20 uM preincubated for 5 mins followed by NADPH addition measured after 60 mins by LC-MS/MS analysis; assay type: ADME; details: 1 h

Row | SMILES | Drug recovery (Rattus norvegicus) | Drug excretion [7] | Drug excretion [8] | Drug excretion [9] | Drug excretion [10] | Retention_time [13] | other results
1 | CC(C)[C@]1(C)SC(N[C@H]2C[C@@H]3CC[C@H]2C3)=NC1=O | – | – | – | – | – | – | fraction unbound [1]: 0.15; fraction unbound [2]: 0.15; bioavailability [3]: 30%; Vd [4]: 1 L/kg; clearance [5]: 50 mL/min/kg
2 | CC(C)[C@]1(C)SC(N[C@H]2C[C@H]3C[C@@H]2C[C@@H]3O)=NC1=O | 24.2% | 17% | 17% | 24% | 24% | – | Retention_time [6]: 30.3 min
3 | CC(C)[C@]1(C)SC(N[C@H]2C[C@H]3C[C@@H]2C[C@H]3O)=NC1=O | 4.7% | 29% | 29% | 37% | 37% | – | Retention_time [6]: 30.9 min
4 | CC(C)[C@]1(C)SC(N[C@H]2C[C@H]3C[C@@H]2CC3=O)=NC1=O | 9.1% | – | – | – | – | – | Retention_time [6]: 33.3 min; Drug metabolism [11]: metabolite_detected
5 | CC(C)[C@]1(C)SC(N[C@H]2C[C@H]3C[C@@H]2[C@H](O)C3)=NC1=O | 3.2% | 29% | 29% | 37% | 37% | – | Retention_time [6]: 33 min
6 | C=C(C)[C@]1(C)SC(N[C@H]2C[C@@H]3CC[C@H]2C3)=NC1=O | – | – | – | – | – | – | Retention_time (Plasma [12]): 40.7 min
7 | C[C@H](CO)[C@]1(C)SC(N[C@H]2C[C@H]3C[C@@H]2CC3=O)=NC1=O | 0.1% | – | – | – | – | 9.2 min | –
8 | CC(C)(O)[C@]1(C)SC(N[C@H]2C[C@H]3C[C@@H]2C[C@@H]3O)=NC1=O | – | 8.3% | 8.3% | 24% | 24% | – | Retention_time (Liver microsome [14]): 11.5 min; Retention_time (Liver microsome [15]): 11.5 min
9 | C[C@@H](CO)[C@]1(C)SC(N[C@H]2C[C@H]3C[C@@H]2C[C@H]3O)=NC1=O | 0.1% | 8.3% | 8.3% | 24% | 24% | – | Retention_time [16]: 12.8 min
10 | C[C@H](C(=O)O)[C@]1(C)SC(N[C@H]2C[C@@H]3CC[C@H]2C3)=NC1=O | – | – | – | – | – | 25.8 min | –
11 | C[C@@H](C(=O)O)[C@]1(C)SC(N[C@H]2C[C@@H]3CC[C@H]2C3)=NC1=O | 0.5% | – | – | – | – | – | Retention_time [17]: 35.7 min
12 | C=C(C)[C@]1(C)SC(N[C@H]2C[C@H]3C[C@@H]2C[C@@H]3O)=NC1=O | 0.8% | – | – | – | – | 27.9 min | –
13 | C=C(C)[C@]1(C)SC(N[C@H]2C[C@H]3C[C@@H]2[C@H](O)C3)=NC1=O | 0.1% | – | – | – | – | – | Retention_time [17]: 29.9 min
14 | CC(C)(O)[C@]1(C)SC(N[C@H]2C[C@@H]3CC[C@H]2C3)=NC1=O | 0.9% | 29% | 29% | 37% | 37% | – | Retention_time (Plasma [18]): 38.5 min
15 | C[C@@H](CO)[C@]1(C)SC(N[C@H]2C[C@H]3C[C@@H]2CC3=O)=NC1=O | 2.1% | – | – | – | – | 14.1 min | –
16 | CC(C)(O)[C@]1(C)SC(N[C@H]2C[C@H]3C[C@@H]2CC3=O)=NC1=O | – | – | – | – | – | 20.7 min | –
17 | CC(C)(O)[C@]1(C)SC(N[C@H]2C[C@H]3C[C@@H]2C[C@H]3O)=NC1=O | – | 8.3% | 8.3% | 24% | 24% | – | Retention_time [16]: 12.8 min
18 | C[C@@H](CO)[C@]1(C)SC(N[C@H]2C[C@H]3C[C@@H]2C[C@@H]3O)=NC1=O | 2.9% | 8.3% | 8.3% | 24% | 24% | – | Retention_time (Liver microsome [19]): 11.5 min; Retention_time (Liver microsome [14]): 11.5 min
19 | C[C@H](CO)[C@]1(C)SC(N[C@H]2C[C@H]3C[C@@H]2C[C@H]3O)=NC1=O | 0.2% | 8.3% | 8.3% | 24% | 24% | 8.5 min | –
20 | C[C@H](CO)[C@]1(C)SC(N[C@H]2C[C@H]3C[C@@H]2[C@H](O)C3)=NC1=O | 0.1% | 8.3% | 8.3% | 24% | 24% | 9.9 min | –
21 | CC(CO[C@@H]1O[C@H](C(=O)O)[C@@H](O)[C@H](O)[C@H]1O)[C@]1(C)SC(N[C@H]2C[C@@H]3CC[C@H]2C3)=NC1=O (some centres undefined) | 0.1% | – | – | – | – | – | Retention_time [17]: 27.8 min
22 | CC(C)[C@]1(C)SC(N[C@H]2C[C@H]3C[C@@H]2[C@H](O)[C@@H]3O)=NC1=O | 0.1% | 8.3% | 8.3% | 24% | 24% | 19.2 min | –
23 | CC(O)(CO)[C@]1(C)SC(N[C@H]2C[C@@H]3CC[C@H]2C3)=NC1=O (some centres undefined) | 0.1% | 8.3% | 8.3% | 24% | 24% | – | Retention_time [17]: 31.5 min
24 | C[C@H](CO)[C@]1(C)SC(N[C@H]2C[C@H]3C[C@@H]2C[C@@H]3O)=NC1=O | 1.2% | 8.3% | 8.3% | 24% | 24% | 7.2 min | Drug metabolism [11]: metabolite_detected
25 | C[C@H](CO)[C@]1(C)SC(N[C@H]2C[C@@H]3CC[C@H]2C3)=NC1=O | 2.6% | 29% | 29% | 37% | 37% | – | Retention_time [6]: 34.6 min
26 | C[C@@H](CO)[C@]1(C)SC(N[C@H]2C[C@@H]3CC[C@H]2C3)=NC1=O | 0.8% | 29% | 29% | 37% | 37% | – | Retention_time [6]: 37.5 min

Reference: ChEMBL document CHEMBL3525943, “Regiospecific and stereospecific triangulation of the structures of metabolites formed by sequential metabolism at multiple prochiral centers” (Drug Metab Dispos, 2012)
